SMILES: COCCN(C)c1ccc(C)c2c(=O)c(-c3ccc(OC)cc3)c[nH]c12.Cl
- melting point: 90 to 93 °C

SMILES: CCCOc1cccc2c(=O)c(-c3cccc4ccccc34)c[nH]c12
- melting point: 255 to 256 °C

SMILES: CCCOc1cccc2c(=O)c(-c3ccc(OC)c(OC)c3)c[nH]c12 [Example 14, 3-(3,4-Dimethoxyphenyl)-8-propoxy-1H-quinolin-4-one]
- melting point: 210 to 211 °C

SMILES: CCCOc1cccc2c(=O)c(-c3ccncc3)c[nH]c12 [Example 15, 8-Propoxy-3-pylidine-4-yl-1H-quinolin-4-one]
- melting point: 259 to 260 °C

SMILES: CCCOc1cccc2c(=O)c(-c3ccc(OC)cc3OC)c[nH]c12 [Example 16, 3-(2,4-Dimethoxyphenyl)-8-propoxy-1H-quinolin-4-one]
- melting point: 231 to 232 °C

SMILES: CCCOc1cccc2c(=O)c(-c3ccc(OC)cc3C)c[nH]c12 [Example 19, 3-(4-Methoxy-2-methylphenyl)-8-propoxy-1H-quinolin-4-one]
- melting point: 214 to 215 °C

SMILES: CCCOc1ccc(-c2ccccc2)c2c(=O)c(-c3ccc(OC)cc3)c[nH]c12 [Example 22, 3-(4-Methoxyphenyl)-5-phenyl-8-propoxy-1H-quinolin-4-one]
- melting point: 186 to 187 °C

SMILES: CCOc1ccc(OCC)c2c(=O)c(-c3ccc(OC)cc3)c[nH]c12 [Example 25, 5,8-Diethoxy-3-(4-methoxyphenyl)-1H-quinolin-4-one]
- melting point: 182 to 183 °C

SMILES: CCCOc1cccc2c(=O)c(-c3ccc(Cl)cc3Cl)c[nH]c12 [Example 27, 3-(2,4-Dichlorophenyl)-8-propoxy-1H-quinolin-4-one]
- melting point: 189 °C

SMILES: CCCOc1cccc2c(=O)c(-c3c(Cl)cccc3Cl)c[nH]c12 [Example 28, 3-(2,6-Dichlorophenyl)-8-propoxy-1H-quinolin-4-one]
- melting point: 193 °C

SMILES: CCCOc1cccc2c(=O)c(-c3ccc(F)cc3Cl)c[nH]c12 [Example 29, 3-(2-Chloro-4-fluorophenyl)-8-propoxy-1H-quinolin-4-one]
- melting point: 230 °C

SMILES: CCCOc1cccc2c(=O)c(-c3c(F)cccc3Cl)c[nH]c12 [Example 30, 3-(2-Chloro-6-fluorophenyl)-8-propoxy-1H-quinolin-4-one]
- melting point: 250 °C

SMILES: CCCOc1cccc2c(=O)c(-c3cc(OC)ccc3OC)c[nH]c12 [Example 31, 3-(2,5-Dimethoxyphenyl)-8-propoxy-1H-quinolin-4-one]
- melting point: 175 °C

SMILES: CCCOc1cccc2c(=O)c(-c3c(F)c(F)c(F)c(F)c3F)c[nH]c12 [Example 33, 3-Pentafluorophenyl-8-propoxy-1H-quinolin-4-one]
- melting point: 160 °C

SMILES: CCOc1cc(NC(=O)c2ccccc2)c(OCC)c2c(=O)c(-c3ccc(OC)cc3)c[nH]c12 [Example 35, N-[5,8-Diethoxy-3-(4-methoxyphenyl)-4-oxo-1,4-dihydroquinolin-6-yl]-benzamide]
- melting point: 120 to 121 °C

SMILES: CCCOc1cc(C)cc2c(=O)c(-c3ccc(OC)cc3)c[nH]c12 [Example 36, 3-(4-Methoxyphenyl)-6-methyl-8-propoxy-1H-quinolin-4-one]
- melting point: 161 to 162 °C

SMILES: CCCOc1cccc2c(=O)c(-c3ccccc3OC)c[nH]c12 [Example 39, 3-(2-Methoxyphenyl)-8-propoxy-1H-quinolin-4-one]
- melting point: 218 to 220 °C

SMILES: CCCOc1ccc(OC)c2c(=O)c(-c3ccccc3OC)c[nH]c12 [Example 40, 5-Methoxy-3-(2-methoxyphenyl)-8-propoxy-1H-quinolin-4-one]
- melting point: 239 to 241 °C

SMILES: CCCOc1cccc2c(=O)c(-c3cccc(OC)c3OC)c[nH]c12 [Example 41, 3-(2,3-Dimethoxyphenyl)-8-propoxy-1H-quinolin-4-one]
- melting point: 253 to 255 °C

SMILES: CCCOc1ccc(OC)c2c(=O)c(-c3cccc(OC)c3OC)c[nH]c12 [Example 42, 3-(2,3-Dimethoxyphenyl)-5-methoxy-8-propoxy-1H-quinolin-4-one]
- melting point: 145 to 148 °C

SMILES: CCCOc1ccc(OC)c2c(=O)c(-c3cc(OC)ccc3OC)c[nH]c12 [Example 43, 3-(2,5-Dimethoxyphenyl)-5-methoxy-8-propoxy-1H-quinolin-4-one]
- melting point: 179 to 180 °C

SMILES: CCOc1ccc(OC)c2c(=O)c(-c3ccc(OC)cc3)c[nH]c12 [Example 45, 8-Ethoxy-5-methoxy-3-(4-methoxyphenyl)-1H-quinolin-4-one]
- melting point: 117 to 119 °C

SMILES: COc1ccc(-c2c[nH]c3c(OC(C)C)ccc(OC)c3c2=O)cc1 [Example 46, 8-Isopropoxy-5-methoxy-3-(4-methoxyphenyl)-1H-quinolin-4-one]
- melting point: 213 to 214 °C

SMILES: COc1ccc(-c2c[nH]c3c(OCC(C)C)ccc(OC)c3c2=O)cc1 [Example 47, 8-Isobutoxy-5-methoxy-3-(4-methoxyphenyl)-1H-quinolin-4-one]
- melting point: 242 to 244 °C

SMILES: CCCOc1c(F)ccc2c(=O)c(-c3ccc(OC)cc3)c[nH]c12 [Example 48, 7-Fluoro-3-(4-methoxyphenyl)-8-propoxy-1H-quinolin-4-one]
- melting point: 160 to 161 °C

SMILES: CCCOc1ccc(CC)c2c(=O)c(-c3ccc(OC)cc3)c[nH]c12 [Example 49, 5-Ethyl-3-(4-methoxyphenyl)-8-propoxy-1H-quinolin-4-one]
- melting point: 169 to 170 °C

SMILES: CCCOc1ccc(C)c2c(=O)c(-c3ccccc3C)c[nH]c12 [Example 50, 5-Methyl-8-propoxy-3-o-tolyl-1H-quinolin-4-one]
- melting point: 201 to 202 °C

SMILES: CCCOc1ccc(C)c2c(=O)c(-c3ccccc3OC)c[nH]c12 [Example 52, 3-(2-Methoxyphenyl)-5-methyl-8-propoxy-1H-quinolin-4-one]
- melting point: 221 to 223 °C

SMILES: CCCOc1ccc(C)c2c(=O)c(-c3cccc(OC)c3OC)c[nH]c12 [Example 53, 3-(2,3-Dimethoxyphenyl)-5-methyl-8-propoxy-1H-quinolin-4-one]
- melting point: 170 to 171 °C

SMILES: CCCOc1cccc2c(=O)c(-c3ccccc3Br)c[nH]c12 [Example 54, 3-(2-Bromophenyl)-8-propoxy-1H-quinolin-4-one]
- melting point: 200 to 203 °C

SMILES: CCCOc1cccc2c(=O)c(-c3cccc(Br)c3)c[nH]c12 [Example 55, 3-(3-Bromophenyl)-8-propoxy-1H-quinolin-4-one]
- melting point: 107 to 108 °C

SMILES: CCCOc1cccc2c(=O)c(-c3cccc(-c4ccc(OC)cc4OC)c3)c[nH]c12 [Example 56, 3-(2′,4′-Dimethoxybiphenyl-3-yl)-8-propoxy-1H-quinolin-4-one]
- melting point: 81 to 84 °C

SMILES: CCCOc1ccc(C)c2c(=O)c(-c3ccc(Cl)cc3Cl)c[nH]c12 [Example 57, 3-(2,4-Dichlorophenyl)-5-methyl-8-propoxy-1H-quinolin-4-one]
- melting point: 103 to 106 °C

SMILES: CCCOc1cccc2c(=O)c(-c3cccc(-c4ccc(C)cc4)c3)c[nH]c12 [Example 59, 3-(4′-Methylbiphenyl-3-yl)-8-propoxy-1H-quinolin-4-one]
- melting point: 189 to 193 °C

SMILES: CCCOc1ccc(C)c2c(=O)c(-c3cccs3)c[nH]c12 [Example 61, 5-Methyl-8-propoxy-3-thiophen-2-yl-1H-quinolin-4-one]
- melting point: 104 to 105 °C

SMILES: CCCOc1ccc(C)c2c(=O)c(-c3cn(C)c4ccccc34)c[nH]c12 [Example 62, 5-Methyl-3-(1-methyl-1H-indol-3-yl)-8-propoxy-1H-quinolin-4-one]
- melting point: 106 to 109 °C

SMILES: CCCOc1ccc(C)c2c(=O)c(-c3sc4ccccc4c3C)c[nH]c12 [Example 66, 5-Methyl-3-(3-methylbenzo[b]thiophen-2-yl)-8-propoxy-1H-quinolin-4-one]
- melting point: 90 to 92 °C

SMILES: COc1ccc(-c2c[nH]c3c(OCC4CC4)ccc(C)c3c2=O)cc1 [Example 69, 8-Cyclopropylmethoxy-3-(4-methoxyphenyl)-5-methyl-1H-quinolin-4-one]
- melting point: 182 to 183 °C

SMILES: CCc1nccn1-c1ccc(C)c2c(=O)c(-c3ccc(OC)cc3)c[nH]c12 [Example 71, 8-(2-Ethylimidazol-1-yl)-3-(4-methoxyphenyl)-5-methyl-1H-quinolin-4-one]
- melting point: 258 to 260 °C

SMILES: CCCN(C)c1ccc(C)c2c(=O)c(-c3ccc(OC)cc3)c[nH]c12 [Example 72, 3-(4-Methoxyphenyl)-5-methyl-8-(methyl-propyl-amino)-1H-quinolin-4-one]
- melting point: 159 to 161 °C

SMILES: COc1ccc(-c2c[nH]c3c(N4CCOCC4)ccc(C)c3c2=O)cc1 [Example 73, 3-(4-Methoxyphenyl)-5-methyl-8-morpholin-4-yl-1H-quinolin-4-one]
- melting point: 260 to 263 °C

SMILES: CCCOc1ccc(C)c2c(=O)c(-c3ccc(O)cc3)c[nH]c12 [Example 74, 3-(4-Hydroxyphenyl)-5-methyl-8-propoxy-1H-quinolin-4-one]
- melting point: 265 to 267 °C

SMILES: Cc1ccc(O)c2[nH]cc(-c3ccc(O)cc3)c(=O)c12 [Example 75, 8-Hydroxy-3-(4-hydroxyphenyl)-5-methyl-1H-quinolin-4-one]
- melting point: 270 to 275 °C (dec.)

SMILES: CCCCc1ccc(C)c2c(=O)c(-c3ccc(OC)cc3)c[nH]c12 [Example 76, 8-Butyl-3-(4-methoxyphenyl)-5-methyl-1H-quinolin-4-one]
- melting point: 186 to 188 °C

SMILES: COc1ccc(-c2c[nH]c3c(N4CCN(C)CC4)ccc(C)c3c2=O)cc1 [Example 77, 3-(4-Methoxyphenyl)-5-methyl-8-(4-methylpiperazin-1-yl)-1H-quinolin-4-one]
- melting point: 214 to 215 °C

SMILES: CCCOc1ccc(C)c2c(=O)c(-c3ccc(OC)cc3OCC)c[nH]c12 [Example 78, 3-(2-Ethoxy-4-methoxyphenyl)-5-methyl-8-propoxy-1H-quinolin-4-one]
- melting point: 191 to 192 °C

SMILES: COc1ccc(-c2c[nH]c3c(OCC4CC4)ccc(C)c3c2=O)c(F)c1 [Example 79, 8-Cyclopropylmethoxy-3-(2-fluoro-4-methoxyphenyl)-5-methyl-1H-quinolin-4-one]
- melting point: 198 to 199 °C

SMILES: CCCOc1ccc(C)c2[nH]cc(-c3ccc(OC)cc3)c(=O)c12 [Example 80, 3-(4-Methoxyphenyl)-8-methyl-5-propoxy-1H-quinolin-4-one]
- melting point: 156 to 158 °C

SMILES: CCCOc1ccc(Cl)c2[nH]cc(-c3ccc(OC)cc3)c(=O)c12 [Example 81, 8-Chloro-3-(4-methoxyphenyl)-5-propoxy-1H-quinolin-4-one]
- melting point: 145 to 147 °C

Source: patent US20130217678A1, “PHARMACEUTICAL AGENT COMPRISING QUINOLONE COMPOUND” (OTSUKA PHARMACEUTICAL CO., LTD., priority 2008, published 2013)
